According to ChEMBL document CHEMBL1143556 (J Med Chem, 2005):

Legend:
[1] = biological target: T1, Peroxisome proliferator-activated receptor alpha (Homo sapiens, UniProt Q07869); test: Effective concentration against human Peroxisome proliferator activated receptor alpha
T1 sequence (Q07869 whole entry): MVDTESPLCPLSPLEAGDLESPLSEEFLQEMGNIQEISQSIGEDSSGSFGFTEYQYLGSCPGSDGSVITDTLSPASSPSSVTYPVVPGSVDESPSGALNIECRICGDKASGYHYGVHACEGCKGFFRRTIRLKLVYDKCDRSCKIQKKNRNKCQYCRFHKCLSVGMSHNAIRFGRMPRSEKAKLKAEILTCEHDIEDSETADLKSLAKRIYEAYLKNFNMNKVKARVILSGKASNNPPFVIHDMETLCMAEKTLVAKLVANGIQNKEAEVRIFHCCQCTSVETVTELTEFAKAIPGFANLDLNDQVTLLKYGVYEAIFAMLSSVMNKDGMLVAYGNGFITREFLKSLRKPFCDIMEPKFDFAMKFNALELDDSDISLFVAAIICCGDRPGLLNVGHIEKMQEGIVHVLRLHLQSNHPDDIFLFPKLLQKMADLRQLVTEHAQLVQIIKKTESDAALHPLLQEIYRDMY

[2] = biological target: T1, Peroxisome proliferator-activated receptor alpha; test: Inhibition of human Peroxisome proliferator activated receptor alpha
[3] = biological target: T2, Peroxisome proliferator-activated receptor gamma (Homo sapiens, UniProt P37231); test: Inhibition of human Peroxisome proliferator activated receptor gamma
T2 sequence (P37231 whole entry): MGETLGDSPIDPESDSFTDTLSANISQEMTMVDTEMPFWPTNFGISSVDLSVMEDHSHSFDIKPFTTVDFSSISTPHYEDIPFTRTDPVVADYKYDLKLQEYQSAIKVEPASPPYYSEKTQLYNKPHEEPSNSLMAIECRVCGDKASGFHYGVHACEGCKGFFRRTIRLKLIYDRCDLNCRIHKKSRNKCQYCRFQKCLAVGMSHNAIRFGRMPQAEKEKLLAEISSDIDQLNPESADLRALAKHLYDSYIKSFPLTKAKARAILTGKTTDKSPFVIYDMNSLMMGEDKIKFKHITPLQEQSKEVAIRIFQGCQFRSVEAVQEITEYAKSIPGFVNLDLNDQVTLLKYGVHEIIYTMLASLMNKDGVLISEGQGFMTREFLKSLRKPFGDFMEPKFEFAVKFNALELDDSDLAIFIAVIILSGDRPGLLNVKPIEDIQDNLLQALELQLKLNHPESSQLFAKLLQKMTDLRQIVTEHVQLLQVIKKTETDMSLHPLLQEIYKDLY

[4] = biological target: T2, Peroxisome proliferator-activated receptor gamma
[5] = tested on: Rattus norvegicus; test: Clearance was measured in male SD rat after 5 mg/kg intra arterial dosage; n=3
[6] = tested on: Rattus norvegicus; test: Half life was measured in male SD rat after 5 mg/kg intra arterial dosage; n=3
[7] = tested on: Rattus norvegicus; test: Time to maximum concentration was measured in male SD rat after 10 mg/kg oral dosage; n=3

IC50 [3] [nM] | EC50 [4] [nM] | SMILES | EC50 [1] [nM] | IC50 [2] [nM] | CL (mL.min-1.kg-1) [5] | T1/2 [6] [h] | Tmax [7] [h]
– | – | CC(C)(Oc1ccc(C(=O)c2ccc(Cl)cc2)cc1)C(=O)O [FENOFIBRIC ACID] | > 10000 | > 10000 | – | – | –
316 | 425 | CCCCCCCN(CCc1ccc(O[C@@](C)(CC)C(=O)O)cc1)C(=O)Nc1ccc(F)cc1F | < 20 | 538 | – | – | –
4800 | 1500 | Cc1oc(-c2ccccc2)nc1CCOc1ccc(CN(CC(=O)O)Cc2ccccc2)cc1 | 20 | 1400 | – | – | –
– | – | COc1ccc(OC(=O)N(CC(=O)O)Cc2ccc(OCCc3nc(-c4ccccc4)oc3C)cc2)cc1 [MURAGLITAZAR] | 320 | 250 | 3 | 7.3 | 0.4
